Source: patent publication US20250011404A1, “TARGETING APOE ENHANCES T-CELL KILLING IN CANCER IMMUNOTHERAPY” (Children's National Medical Center, priority 2021, published 2025)
“Also recorded” adds a separate entry of the source.

Experiments:
[1] = test system: vaccinated splenocytes co-cultured with Myc inhibited B16 tumor cells; assay: IFNγ ELISA, vaccinated splenocytes co-cultured with immunogenic B16 cells; type: cell-based, mouse; settings: vaccinated WT splenocytes + Myc-inhibited B16 cells, 48 hr, in presence of COG133, dose dependent
Experimental: To further investigate the influence of tumor secreted apoE on immune cell function, immunogenic B16 tumor cells (B16 cells treated with Myc inhibitors (0.25 μM BET+0.25 μM JQ1 for 4 days) were irradiated at 60 Gray and co-cultured with naïve C57/BL6 splenocytes in the presence of either apoE mimetic COG133 at 0.3, 3 and 9 μM or anti-APOE blocking antibody at 1, 10 and 30 μg/ml concentrations. Prior work has shown the immunogenic effect of treating cancer cells with Myc inhibitors and irradiation. IFNγ production was quantified by ELISA at 48 h. Splenocytes produced high levels of IFNγ when co-cultured with Myc-inhibited immunogenic B16 cells as shown in FIGS. 3A-3C. Exposure of these cells to apoE mimetic COG133 repressed IFNγ production (6-fold reduction) (FIG. 3A), while the presence of Anti-APOE antibody enhanced IFNγ production (3-fold increase) (FIG. 3B). We also tested IFNγ production from vaccinated splenocytes following co-culture with treated and untreated B16 cells in the presence of COG 133. […] In addition to IFNγ, we also quantified other cytokine/chemokines using ProcartaPlex multiplex immunoassay. […] In addition, using ProcartaPlex multiplex immunoassay, we also quantified other cytokines/chemokines produced in the reaction. […] Readings were measured at 450 nm using the EnSpire 2300 Multilabel plate reader (Perkin Elmer, Waltham, Massachusetts, US).

[2] = test system: Mouse bone-marrow derived dendritic cells (DC); assay: Cytokine production of TLR7/8 activated bone-marrow derived dendritic cells, multiplex ELISA; type: cell-based; settings: 48 hr
Experimental: Mouse bone-marrow derived dendritic cells (DC) were cultured in the presence of the indicated concentrations of apoE agonist COG133 for 48 hr. COG133 increased the production of anti-inflammatory IL-10, GM-CSF, and chemokines MCP-1 and MCP-3 by TLR7/8 activated DC while decreasing the levels of proinflammatory cytokines IL-1α, IL-1β and IL-23 in a dose-dependent manner as determined by multiplex ELISA.
Cell culture supernatant was collected after centrifuge at 1,200 rpm for 10 min at 4° C. The concentrations of the following immune molecules were determined using the mouse Cytokine & Chemokine 36-plex ProcartaPlex Panel, a magnetic bead-based multiplex immunoassay (Thermo Scientific) following our previous protocol(19). Briefly, cell culture supernatant samples were mixed with antibody-linked polystyrene beads on a 96-well plate and incubated at room temperature (RT) for 2 h on an orbital shaker at 500 rpm. After washing, plates were incubated with biotinylated detection antibody for 30 min at RT. Plates were then washed twice and then labeled beads were resuspended in streptavidin-PE. Each sample was measured in duplicate along with standards (8-point dilutions) and the buffer control. Plates were read using a Luminex Bio-plex 200 system (Bio-Rad Corp.) for quantitative analysis.

## COG133: a fragment of apoE peptide, which competes with the apoE holoprotein for binding the LDL receptors and acts as an apoE mimetic
[1]
  IFNγ production from vaccinated splenocytes: inhibited; also recorded: inhibitory; also recorded: significantly suppressed
[1]; listed as COG 133
  IFNγ production from vaccinated splenocytes: suppressed
[2]; dose dependent
  IL-1α, IL-1β and IL-23 levels of activated DC: suppressed; also recorded: decreasing
  secretion of anti-inflammatory cytokine IL-10 from activated DC: induced secretion
[2]; indicated concentrations, multiplex ELISA (FIG. 16)
  production of IL-10, GM-CSF, MCP-1 and MCP-3 by TLR7/8 activated DC: increased
